Reference: publication PMC4500896, “Frog intestinal perfusion to evaluate drug permeability: application to p-gp and cyp3a4 substrates” (Frontiers in Pharmacology, 2015)

Assays:
[1] = test system: human intestinal permeability; set-up: method as in a (footnote not given); conditions: reported human Peff; ref a (footnote not given); cited from earlier work
frog intestine [2] = conditions: in vivo
Caco-2 = test system: Caco-2; set-up: method as in b (footnote not given); conditions: Caco-2 cell data; ref b (footnote not given); cited from earlier work
[3] = Frog in situ single pass intestinal perfusion (SPIP), parallel-tube model; conditions: Rana tigrina (frog), pH 7.4
frog intestine [4] = test: as above; conditions: non-absorbable marker in outlet perfusate, frog SPIP
rat everted gut sac = rat everted gut sac model; ref c (footnote not given); cited from earlier work

Q: For `CCCCc1nc(Cl)c(CO)n1Cc1ccc(-c2ccccc2-c2nn[nH]n2)cc1` [Losartan], which “Effective permeability coefficient, Human” value [1] is on record?
A: 1.15^a 10^-4cm s^-1

Q: What about the “Change in Peff of the probe drug when co-perfused with inhibitors” value (frog intestine [2]) of the same compound?
A: significant change in Peff was observed

Q: What about the “Effective permeability coefficient, Caco-2” value (Caco-2) of the same compound?
A: 0.022^b 10^-4cm s^-1

Q: What about the Papp at 90 min ([3]; other: in situ single pass intestinal perfusion) of the same compound?
A: 42.7 ± 27 ×10⁻⁶ cm/s

Q: For `O=S1(=O)OC(c2ccc(O)cc2)(c2ccc(O)cc2)c2ccccc21` [phenol red], which “Recovery of phenol red” value (frog intestine [4]) is on record?
A: 98.3 ± 1.0%

Q: For `Cc1ncc2n1-c1ccc(Cl)cc1C(c1ccccc1F)=NC2` [Midazolam], which “Effective permeability coefficient, Rat” value (rat everted gut sac) is on record?
A: 2.08 ± 0.50^c 10^-4cm s^-1

Q: And the Papp at 90 min [3]?
A: 203 ± 7 ×10⁻⁶ cm/s
